We go through 2 molecules from patent US11801232B2, “Targeting of ARID1A-deficient cancers by inhibiting de novo pyrimidine synthesis pathway” (YALE UNIVERSITY, priority 2019, dated 2023).

For one series, the system named is A2780 cells. Nature of the series: Cytotoxicity (SRB) assay with CalcuSyn combination analysis. In kind it is cell-based. The following applies: Homo sapiens, Table 4, single drug, median effect, read-out: Dm. The method, then:
(§1) Cytotoxicity assay. Cells were seeded in 96-well plates, with 2000 cells in 100 μL/well, and cultured for 24 h. The cells were treated with serial dilutions of drugs or without drug for an additional 72 h. Cell number was determined using a sulforhodamine B (SRB) assay, as previously described^23. Briefly, cells were fixed with 20% trichloroacetic acid (TCA), air-dried, and stained with 0.4% SRB dissolved in 1% acetic acid. After washing, protein-bound dye was solubilized with 10 mM unbuffered Tris-base solution (pH 10.5) and detected at 510 nm using a microplate reader. Percentage of cell-growth was calculated using the following formula: % cell growth=[(Absorbance sample)/(Absorbance untreated)]×100
(§2) Using CalcuSyn software (Biosoft), dose-effect curves were generated, and drug concentrations corresponding to a 50% decrease in cell number (IC50) were determined.
Drug concentrations corresponding to a median effect (Dm) are shown for each treatment; teriflunomide concentration is shown for a combination (Combo) treatment at a 10:1 fixed molar ratio of two drugs, teriflunomide and AZD6738. […] CIwt<0.8, =0.8 to 1.2, and >1.2 indicate synergism, an additive effect, and antagonism, respectively. A CIwt value was calculated using the formula: CIwt=(ED50+2ED75+3ED90)/6. Datasets from at least three independent experiments were combined, and each table cell contains the mean value±SD.

For a further series, the system named is JHOC-5 cells. The description is as above. The class given is cell-based. The following applies: Homo sapiens, Table 5, single drug, median effect, read-out: Dm. The method, then: as §1, §2
The drug concentrations corresponding to a median effect (Dm) are shown for each treatment; teriflunomide concentration is shown for combination (Combo) treatment at a 10:1 fixed molar ratio of two drugs, teriflunomide and AZD6738. […] CIwt<0.8, =0.8 to 1.2, and >1.2 indicates synergism, an additive effect, and antagonism, respectively. A CIwt value was calculated using the formula: CIwt=(ED50+2ED75+3ED90)/6. Datasets from at least three independent experiments were combined, and each table cell contains the mean value±SD.

A further series relates to ES2-shARID1A xenografts. To be noted: mouse, in vivo, ip, 4 mg/kg. As for the experimental part: Animal Model. All animal procedures were conducted in accordance with a protocol approved by the Institutional Animal Care and Use Committee at Yale University.
Three mouse experiments were performed: (i) to assess an effect of teriflunomide on ES2 cells in vivo, (ii) to assess an effect of teriflunomide on SKOV3 cells in vivo, and (iii) to assess a combination effect of teriflunomide and AZD6738 on ES2-shARID1A cells in vivo. All experiments were performed using subcutaneous cell-xenograft models generated by injecting cells into the flanks of 6-week-old female athymic NCr-nu/nu mice (Charles River Laboratories).
Animal-human dose translation was calculated as previously described^24. Tumor volumes were measured every other day by caliper to determine tumor volume using the formula (length/2)×(width^2). […] Experiments were terminated when mean tumor volume of a vehicle ES2-shCon group reached 1000 mm^3. Tumor xenografts were excised at time of euthanasia. Representative samples were flash-frozen in liquid nitrogen for subsequent protein expression analysis by immunoblotting, as well as being formalin-fixed paraffin-embedded (alternatively, FFPE) for subsequent hematoxylin and eosin staining and immunohistochemical analysis. FFPE sections were reviewed by a pathologist (alternatively, P.H.), and cellular necrosis was quantified as % cross-sectional area of bisected tumor xenografts. […]

The next series concerns P-CHK1 Ser345. Briefly: Immunoblot of phosphorylated CHK1 in ES2 cell lysates. The class given is cell-based, human. The following applies: ES2 cells; teriflunomide 15 μM, AZD6738 1.5 μM. As for the experimental part:
(§3) Immunoblot Analysis and Co-Immunoprecipitation Assay. For immunoblotting experiments, cells were lysed in BC200 lysis buffer [20 mM Tris-HCl (pH 7.5), 200 mM NaCl, 1 mM EDTA, 0.2% Nonidet P-40 (NP-40), freshly added complete protease inhibitor cocktail (from Roche), and PhosSTOP phosphatase inhibitor (from Roche)] or in boiling SDS lysis buffer [1% SDS and 10 mM Tris-CI (pH 7.5)], as previously described^21. Protein concentrations were quantified using a modified Lowry assay, and equal protein amounts were loaded onto a 10% SDS-PAGE gel and separated by gel electrophoresis, followed by transfer to a nitrocellulose membrane. The nitrocellulose membrane was stained with Ponceau S to confirm equal protein loading and then blocked in 2% BSA in Tris-buffered saline with 0.1% Tween-20 (tris buffered saline with tween, or TBST). Primary antibody incubation was done for 2 h at room temperature or, for phospho-specific antibodies, overnight at 4° C. An HRP-conjugated secondary antibody was used, followed by detection using enhanced chemiluminescence substrate (from Pierce). Autoradiograph images were scanned and saved as unmodified TIFF images, and densitometry analysis was done with ImageJ (from NIH) software.
A general note: Immunoblotting shows a protein as a band on a membrane.

The test system of a further series is γ-H2AX. Briefly: Immunoblot and immunofluorescence of γ-H2AX in ES2 cells. In kind it is cell-based, human. To be noted: ARID1A-knockdown ES2 cells; teriflunomide 15 μM, AZD6738 1.5 μM, VX-970 0.075 μM; 24-72 h. The method, then:
as §3
Immunofluorescence. […] Images of cells were acquired using a BZ-X710 fluorescence microscope (from KEYENCE) and analyzed using ImageJ (from NIH).

As for `C/C(O)=C(\C#N)C(=O)Nc1ccc(C(F)(F)F)cc1` [Teriflunomide, teriflunomide], the IC50 in the series on A2780 cells is 18.9 ± 1.39 µM; in the series on JHOC-5 cells, 25.2 ± 1.85 µM. In addition, the “Weight loss or toxicity in mice” value in the series with ES2-shARID1A xenografts is “no significant weight loss or toxicity”.

Turning to `C[C@@H]1COCCN1c1cc(C2([S@](C)(=N)=O)CC2)nc(-c2cc[nH]c3nccc2-3)n1` [AZD6738], the IC50 with A2780 cells is 5.54 ± 1.06 µM; in the series with JHOC-5 cells, 2.91 ± 0.76 µM. In addition, the “Phosphorylation of CHK1 on serine 345” value in the series with P-CHK1 Ser345 is on record as “decreased levels”. Further, the γ-H2AX protein levels entry in the series on γ-H2AX is “increased”.
